From PMC5647257 (Bioorganic & medicinal chemistry letters, 2017)

Molecular target: HIV-1 protease (Human immunodeficiency virus type 1 group M subtype B, UniProt P04585)
Test: HIV-1 protease inhibitory potency, assay protocol of Toth and Marshall
Format: biochemical
Conditions: compared with 13-membered inhibitors 5i and 5j

Row | Compound | fold reduction of enzyme inhibitory activity over inhibitors 5i and 5j
1 | COc1ccc2c(c1)COC/C=C\CCCCCN(C[C@@H](O)[C@H](Cc1ccccc1)NC(=O)O[C@H]1CO[C@H]3OCC[C@H]31)S2(=O)=O [5k] | greater than 20 fold
2 | COc1ccc2c(c1)COC/C=C/CCCCCN(C[C@@H](O)[C@H](Cc1ccccc1)NC(=O)O[C@H]1CO[C@H]3OCC[C@H]31)S2(=O)=O [5l] | greater than 20 fold
